Data published in PubChem BioAssay (NCI).
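Cultured in 96-well plates, cells were exposed to test compound for 48 hours across five concentrations. Abbreviation: GI50, concentration required for 50% inhibition of growth. TGI is the concentration that stops growth completely.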

Experiments:
Assay in all cases: DTP human tumour cell line panel, 48 h
[1] = test system: CAKI-1 renal
[2] = test system: OVCAR-3 ovarian
[3] = test system: NCI-H23 lung
[4] = test system: SK-OV-3 ovarian
[5] = test system: HT29 colon
[6] = test system: PC-3 prostate
[7] = test system: MDA-MB-231 breast
[8] = test system: DU-145 prostate
[9] = test system: U251 CNS
[10] = test system: SF-268 CNS
[11] = test system: SK-MEL-28 melanoma
[12] = test system: 786-0 renal
[13] = test system: K-562 leukemia
[14] = test system: UACC-257 melanoma
[15] = test system: NCI-H460 lung
[16] = test system: OVCAR-4 ovarian
[17] = test system: ACHN renal
[18] = test system: HS 578T breast
[19] = test system: SK-MEL-2 melanoma
[20] = test system: T-47D breast
[21] = test system: UACC-62 melanoma
[22] = test system: OVCAR-5 ovarian
[23] = test system: HCT-15 colon
[24] = test system: UO-31 renal
[25] = test system: M14 melanoma
[26] = test system: OVCAR-8 ovarian
[27] = test system: SF-295 CNS
[28] = test system: MALME-3M melanoma
[29] = test system: COLO 205 colon
[30] = test system: BT-549 breast
[31] = test system: MOLT-4 leukemia
[32] = test system: MCF7 breast
[33] = test system: NCI-H522 lung
[34] = test system: IGROV1 ovarian
[35] = test system: SN12C renal
[36] = test system: SNB-19 CNS
[37] = test system: SF-539 CNS
[38] = test system: NCI-H226 lung
[39] = test system: NCI/ADR-RES ovarian
[40] = test system: HCT-116 colon
[41] = test system: EKVX NSCLC
[42] = test system: CCRF-CEM leukemia
[43] = test system: SW-620 colon
[44] = test system: HOP-92 NSCLC
[45] = test system: TK-10 renal
[46] = test system: SR leukemia
[47] = test system: HOP-62 NSCLC
[48] = test system: LOX IMVI melanoma
[49] = test system: A549 NSCLC
[50] = test system: SK-MEL-5 melanoma
[51] = test system: HCC-2998 colon
[52] = test system: A498 renal
[53] = test system: SNB-75 CNS
[54] = test system: KM12 colon
[55] = test system: MDA-MB-435
[56] = test system: RPMI-8226 leukemia
[57] = test system: HL-60(TB) leukemia

COc1ccc2sc(NC(=O)CCCCCCNC(=O)C(O)(O)C(F)(F)F)nc2c1
GI50 [1]: 1830 nM
TGI [1]: 14700 nM
GI50 [2]: 696 nM
TGI [2]: 2840 nM
GI50 [3]: 2830 nM
TGI [3]: 21700 nM
GI50 [4]: 860 nM
TGI [4]: 2310 nM
GI50 [5]: 912 nM
TGI [5]: > 30300 nM
GI50 [6]: 1720 nM
TGI [6]: > 30300 nM
GI50 [7]: 680 nM
TGI [7]: 2240 nM
GI50 [8]: 1010 nM
TGI [8]: 14000 nM
GI50 [9]: 1040 nM
TGI [9]: 5270 nM
GI50 [10]: 1480 nM
TGI [10]: 8210 nM
GI50 [11]: 1160 nM
TGI [11]: 7950 nM
GI50 [12]: 1080 nM
TGI [12]: > 30300 nM
GI50 [13]: 882 nM
TGI [13]: > 30300 nM
GI50 [14]: 1490 nM
TGI [14]: 26800 nM
GI50 [15]: 877 nM
TGI [15]: 13500 nM
GI50 [16]: 2800 nM
TGI [16]: > 30300 nM
GI50 [17]: 1180 nM
TGI [17]: 6580 nM
GI50 [18]: 969 nM
TGI [18]: 9910 nM
GI50 [19]: 1060 nM
TGI [19]: 5200 nM
GI50 [20]: 879 nM
TGI [20]: 3020 nM
GI50 [21]: 828 nM
TGI [21]: 3410 nM
GI50 [22]: 912 nM
TGI [22]: 6260 nM
GI50 [23]: 3570 nM
TGI [23]: 10100 nM
GI50 [24]: 1120 nM
TGI [24]: 5700 nM
GI50 [25]: 2070 nM
TGI [25]: > 30300 nM
GI50 [26]: 989 nM
TGI [26]: 6580 nM
GI50 [27]: 1070 nM
TGI [27]: 3410 nM
GI50 [28]: 1040 nM
TGI [28]: 12000 nM
GI50 [29]: 920 nM
TGI [29]: 3650 nM
GI50 [30]: 1500 nM
TGI [30]: 18900 nM
GI50 [31]: 1070 nM
TGI [31]: > 30300 nM
GI50 [32]: 1750 nM
TGI [32]: > 30300 nM
GI50 [33]: 919 nM
TGI [33]: 4610 nM
GI50 [34]: 1830 nM
TGI [34]: 7730 nM
GI50 [35]: 2310 nM
TGI [35]: 19000 nM
GI50 [36]: 2470 nM
TGI [36]: 14700 nM
GI50 [37]: 2050 nM
TGI [37]: > 30300 nM
GI50 [38]: 4940 nM
TGI [38]: 22600 nM
GI50 [39]: 2070 nM
TGI [39]: 18500 nM
GI50 [40]: 754 nM
TGI [40]: > 30300 nM
GI50 [41]: 2330 nM
TGI [41]: > 30300 nM
GI50 [42]: 1340 nM
TGI [42]: > 30300 nM
GI50 [43]: 531 nM
TGI [43]: 1850 nM
GI50 [44]: 649 nM
TGI [44]: 2470 nM
GI50 [45]: 736 nM
TGI [45]: > 30300 nM
GI50 [46]: 738 nM
TGI [46]: > 30300 nM
GI50 [47]: 1330 nM
TGI [47]: > 30300 nM
GI50 [48]: 1380 nM
TGI [48]: 5420 nM
GI50 [49]: 1860 nM
TGI [49]: 18400 nM
GI50 [50]: 1420 nM
TGI [50]: 4870 nM
GI50 [51]: 2150 nM
TGI [51]: 7560 nM
GI50 [52]: 901 nM
TGI [52]: 6470 nM
GI50 [53]: 912 nM
TGI [53]: > 30300 nM
GI50 [54]: 1290 nM
TGI [54]: 7400 nM
GI50 [55]: 1030 nM
TGI [55]: 6000 nM
GI50 [56]: 988 nM
TGI [56]: > 30300 nM
GI50 [57]: 1060 nM
TGI [57]: > 30300 nM
